Our source for the EC50 and LC50 values is ChEMBL document CHEMBL1147282, “3 beta-O-palmityl longispinogenin from Trichocereus chilensis” (J Nat Prod, 1989).

The test system of one data set is A549. Kind of data set: Cytotoxicity against human A549 cells. Conditions: read-out: ED50 (the source's name). In kind it is functional.
Another data set relates to MCF7. Kind of data set: Cytotoxicity against human MCF7 cells. In kind it is functional. The settings on record: read-out: ED50 (the source's name).
Another data set deals with HT-29. The data set can be described thus: Cytotoxicity against human HT-29 cells. In kind it is functional. Conditions: read-out: ED50 (the source's name).
For a further data set, the system named is Artemia. Kind of data set: Toxicity in brine shrimp. In kind it is organism-based. The settings on record: in vivo.

Turning to `CCCCCCCCCCCCCCCC(=O)O[C@H]1CC[C@]2(C)[C@H]3CC=C4[C@@H]5CC(C)(C)CC[C@]5(CO)[C@@H](O)C[C@@]4(C)[C@]3(C)CC[C@H]2C1(C)C`, the EC50 with A549, with MCF7 and with HT-29 was more than 10 µg/mL in each case. The compound also gave an LC50 in the data set with Artemia of more than 1000 ppm.

Broadly, the LC50 is the concentration lethal to half of the exposed cells or organisms. A high value points to lower toxicity.
